From ChEMBL document CHEMBL5050844 (2019)

Columns and labels:
[1] = target: E3 ubiquitin-protein ligase CBL-B (Homo sapiens, UniProt Q13191); assay: Inhibition of N-terminal Avi-tagged human CBL-B (36 to 427 residues) incubated with 60 nM Src kinase for 1.5 hrs followed by incubation with fluorescently labeled UbcH5B-Ub for 1 hr and measured by TR-FRET assay; assay type: single protein
[2] = Induction of anti-CD3/CD28 antibodies-stimulated human T cell activation at 4 uM assessed fold increase in IL-2 secretion measured by ELISA assay; assay type: functional, T cell line
[3] = Induction of anti-CD3/CD28 antibodies-stimulated human T cell activation at 1 uM assessed fold increase in IL-2 secretion measured by ELISA assay; assay type: functional, T cell line
[4] = Induction of anti-CD3/CD28 antibodies-stimulated human T cell activation at 0.3 uM assessed fold increase in IL-2 secretion measured by ELISA assay; assay type: functional, T cell line
[5] = Induction of anti-CD3 antibodies-stimulated human T cell activation at 8 uM assessed fold increase in IL-2 secretion measured by ELISA assay; assay type: functional, T cell line; further: reference of the scale not given here
[6] = Induction of anti-CD3 antibodies-stimulated human T cell activation at 1 uM assessed fold increase in IL-2 secretion measured by ELISA assay; assay type: functional, T cell line; further: reference of the scale not given here
[7] = Induction of anti-CD3/CD28 antibodies-stimulated human T cell activation at 4 uM assessed fold increase in CD25 expression measured by ELISA assay; assay type: functional, T cell line
[8] = Induction of anti-CD3/CD28 antibodies-stimulated human T cell activation at 1 uM assessed fold increase in CD25 expression measured by ELISA assay; assay type: functional, T cell line
[9] = Induction of anti-CD3/CD28 antibodies-stimulated human T cell activation at 0.3 uM assessed fold increase in CD25 expression measured by ELISA assay; assay type: functional, T cell line
[10] = Induction of anti-CD3 antibodies-stimulated human T cell activation at 8 uM assessed fold increase in CD25 expression measured by ELISA assay; assay type: functional, T cell line; further: reference of the scale not given here
[11] = Induction of anti-CD3 antibodies-stimulated human T cell activation at 1 uM assessed fold increase in CD25 expression measured by ELISA assay; assay type: functional, T cell line; further: reference of the scale not given here

Chain of E3 ubiquitin-protein ligase CBL-B (Q13191 whole entry, the tested form may be a part): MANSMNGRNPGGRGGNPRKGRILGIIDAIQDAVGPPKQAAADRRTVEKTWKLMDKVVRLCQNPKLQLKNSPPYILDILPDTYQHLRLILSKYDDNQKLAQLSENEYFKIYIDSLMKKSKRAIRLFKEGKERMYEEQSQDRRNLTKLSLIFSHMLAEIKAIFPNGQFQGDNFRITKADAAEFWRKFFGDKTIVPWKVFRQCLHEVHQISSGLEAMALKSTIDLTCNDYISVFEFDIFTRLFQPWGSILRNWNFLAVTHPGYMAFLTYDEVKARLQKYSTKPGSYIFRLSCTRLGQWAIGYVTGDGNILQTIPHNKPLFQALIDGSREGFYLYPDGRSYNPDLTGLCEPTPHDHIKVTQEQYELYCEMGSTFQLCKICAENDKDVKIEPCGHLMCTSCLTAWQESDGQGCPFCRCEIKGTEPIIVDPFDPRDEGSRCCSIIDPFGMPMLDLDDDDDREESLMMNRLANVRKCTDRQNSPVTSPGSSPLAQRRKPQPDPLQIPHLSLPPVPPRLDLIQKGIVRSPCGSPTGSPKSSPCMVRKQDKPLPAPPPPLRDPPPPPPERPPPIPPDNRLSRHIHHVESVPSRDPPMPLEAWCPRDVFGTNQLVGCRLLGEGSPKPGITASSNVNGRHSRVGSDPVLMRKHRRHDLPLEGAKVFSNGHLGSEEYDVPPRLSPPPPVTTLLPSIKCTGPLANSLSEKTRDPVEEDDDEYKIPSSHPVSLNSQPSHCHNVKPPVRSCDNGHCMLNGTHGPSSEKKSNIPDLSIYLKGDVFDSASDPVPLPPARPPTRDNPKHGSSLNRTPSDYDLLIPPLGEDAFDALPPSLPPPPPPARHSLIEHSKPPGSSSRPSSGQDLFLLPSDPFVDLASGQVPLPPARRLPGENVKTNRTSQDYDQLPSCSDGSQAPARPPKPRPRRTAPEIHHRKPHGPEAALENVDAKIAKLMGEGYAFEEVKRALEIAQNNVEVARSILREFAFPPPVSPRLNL

Row | Compound | IC50 [1] | fold change (FC) [2] | fold change (FC) [3] | fold change (FC) [4] | fold change (FC) [5] | fold change (FC) [6] | fold change (FC) [7] | fold change (FC) [8] | fold change (FC) [9] | fold change (FC) [10] | fold change (FC) [11]
1 | C[C@@H](c1cccc(N2Cc3c(cccc3C(F)(F)F)C2=O)c1)[C@@H](F)c1nncn1C (single isomer, unassigned) | < 100 nM | 2.51 | 1.01 | 1.01 | >=0.201 | 0.051 | 1.01 | 1.01 | 1.01 | >=1.001 | 0.601
2 | Cn1cnnc1CC(C)(C)c1cccc(NC(=O)c2cc(C(=O)N3CC[C@H](O)C3)cc(C(F)(F)F)n2)c1 | < 100 nM | 5 | 2.51 | 1.01 | >=0.201 | 0.101 | 1.01 | 1.01 | 1.01 | >=1.001 | 0.801
3 | Cn1cnnc1CC(C)(C)c1cccc(N2Cc3c(cccc3C(F)(F)F)C2=O)c1 | < 100 nM | >=7.5 | 2.51 | 1.01 | >=0.201 | >=0.201 | 1.51 | 1.01 | 1.01 | >=1.001 | 0.801
4 | CC(O)c1cc2c(c(C(F)(F)F)c1)CN(c1cccc([C@@](C)(F)C(F)(F)c3nncn3C)c1)C2=O (stereo not given in full) | < 100 nM | 5 | 1.01 | 1.01 | >=0.201 | 0.051 | 1.01 | 1.01 | 1.01 | >=1.001 | 0.801
5 | C[C@H](Cc1nncn1C)c1cccc(N2Cc3c(cc(C(=O)N4CC(O)C4)cc3C3CC3)C2=O)c1 | < 100 nM | 2.51 | 1.01 | 1.01 | >=0.201 | 0.151 | 1.01 | 1.01 | 1.01 | >=1.001 | 0.801
6 | C[C@H](Cc1nncn1C)c1cc(OCC(F)F)nc(N2Cc3c(cccc3C(F)(F)F)C2=O)c1 | < 100 nM | >=7.5 | 2.51 | 2.51 | >=0.201 | 0.151 | 1.31 | 1.01 | 1.01 | >=1.001 | 0.801
7 | Cn1cnnc1CC1(c2cccc(N3Cc4c(cc(CN5C[C@@H](F)[C@@H](F)C5)cc4C(F)(F)F)C3=O)c2)COC1 | < 100 nM | >=7.5 | >=7.5 | >=7.5 | >=0.201 | 0.151 | 1.51 | 1.31 | 1.31 | >=1.001 | 0.801
8 | C[C@H](Cc1nncn1C)c1cccc(NC(=O)c2ccnc3ccnn23)c1 | < 100 nM | 2.51 | 1.01 | 1.01 | 0.101 | 0.051 | 1.01 | 1.01 | 1.01 | >=1.001 | 0.801
9 | Cn1cnnc1C(F)(F)[C@](C)(F)c1cccc(N2Cc3c(cc(CN4CC[C@H](C#N)C4)cc3C(F)(F)F)C2=O)c1 | < 100 nM | >=7.5 | >=7.5 | 5 | >=0.201 | >=0.201 | 1.31 | 1.31 | 1.01 | >=1.001 | >=1.001
10 | C[C@@H]1CN(C)CCN1c1cc2c(c(C(F)(F)F)c1)CN(c1cccc([C@@](C)(F)C(F)(F)c3nncn3C)c1)C2=O | < 100 nM | 2.51 | 1.01 | 1.01 | 0.101 | <=0.05 | 1.31 | 1.01 | 1.01 | >=1.001 | 0.801
11 | C[C@H](Cc1nncn1C)c1cccc(NC(=O)c2nc3c(C(F)(F)F)cccc3[nH]2)c1 | < 100 nM | >=7.5 | 5 | 2.51 | >=0.201 | >=0.201 | >=1.76 | 1.51 | 1.01 | >=1.001 | >=1.001
12 | C[C@H](Cc1nncn1C)c1cccc(N2Cc3c(cc([C@H](C)N4CC(O)C4)cc3C(F)(F)F)C2=O)c1 | < 100 nM | >=7.5 | >=7.5 | 5 | >=0.201 | >=0.201 | 1.31 | 1.31 | 1.01 | >=1.001 | >=1.001
13 | C[C@H](Cc1nncn1C)c1cccc(NC(=O)c2cccc(C(C)(C)C)n2)c1 | < 100 nM | 2.51 | 2.51 | 1.01 | >=0.201 | 0.051 | 1.01 | 1.01 | 1.01 | >=1.001 | 0.801

Further lines, with some results ahead:

Row | IC50 [1] | Compound | fold change (FC) [2] | fold change (FC) [3] | fold change (FC) [4] | fold change (FC) [5] | fold change (FC) [6] | fold change (FC) [7] | fold change (FC) [8] | fold change (FC) [9] | fold change (FC) [10] | fold change (FC) [11]
14 | < 100 nM | Cc1cc(C(=O)Nc2cccc(C3(Cc4nncn4C)COC3)c2)nc(C(F)(F)F)n1 | >=7.5 | 2.51 | 1.01 | >=0.201 | 0.101 | 1.01 | 1.01 | 1.01 | >=1.001 | 0.801
15 | < 100 nM | Cn1cnnc1CC1(c2cccc(NC(=O)c3cc(C4CC4)nc(C4CC4)n3)c2)COC1 | >=7.5 | >=7.5 | 2.51 | >=0.201 | 0.151 | 1.31 | 1.01 | 1.01 | >=1.001 | >=1.001
16 | < 100 nM | Cn1cnnc1CC1(c2cccc(N3Cc4c(cc(CN5CC(C#N)C5)cc4C(F)(F)F)C3=O)c2)COC1 | >=7.5 | 5 | 2.51 | >=0.201 | 0.151 | 1.31 | 1.01 | 1.01 | >=1.001 | 0.801
17 | < 100 nM | C[C@H](Sc1nncn1C)c1cccc(NC(=O)c2ccnc(C3CC3)n2)c1 | 5 | 2.51 | <=1 | 0.051 | <=0.05 | 1.31 | 1.01 | 1.01 | >=1.001 | 0.601
18 | < 100 nM | Cc1cc(C(=O)Nc2cccc([C@H](C)Cc3nocc3C)c2)nc(C2CC2)n1 | 5 | 2.51 | 1.01 | >=0.201 | 0.051 | 1.01 | 1.01 | 1.01 | >=1.001 | 0.801
19 | < 100 nM | C[C@H](Cc1nncn1C)c1cccc(NC(=O)c2cc(O[C@@H]3CC[C@@H](O)C3)ccn2)c1 (relative stereo) | 5 | 2.51 | 2.51 | 0.101 | 0.051 | 1.31 | 1.01 | 1.01 | >=1.001 | 0.801
20 | < 100 nM | Cc1cc(C(=O)Nc2cccc([C@H](C)Cc3nncn3C)c2)nc(C(F)(F)F)n1 | >=7.5 | >=7.5 | 2.51 | >=0.201 | >=0.201 | >=1.76 | 1.51 | 1.01 | >=1.001 | 0.801
